{"source": "patent US9193983B2", "about": "“Assays for mutagenesis detection” (The Regents of the University of California, priority 2007, dated 2015)", "key": {"in vitro": {"experiment": "in vitro", "conditions": "Saccharomyces cerevisiae; for viability: Cytotoxicity (% survival)", "description": "(§1) The RS112 yeast DEL assay tester strain of Saccharomyces cerevisiae contains a plasmid with an internal fragment of the HIS3 gene integrated at the genomic HIS3 locus, yielding an integrative disruption of the HIS3 gene. This disruption results in two copies of the HIS3 gene, each copy having one terminal deletion. Recombination between the two his3 deletion alleles results in reversion to HIS3^+ and growth in the absence of histidine. This recombination event leads to a 6 kb DNA deletion comprising the integrated plasmid leading to deletion (DEL) events. The assay utilizing DEL events involves overnight growth of a single colony of the RS112 strain and subsequent subculture with the presence or absence of the chemical being tested for 17 hours at 30° C. under constant shaking. Yeast are then plated onto SC medium to determine the number of survivors (individual colonies are counted) and onto SC-HIS medium to score for DEL events. The traditional DEL assay is very powerful if one is testing a limited number of chemicals but becomes impractical for screening large numbers of chemicals and chemical libraries.\n(§2) For 384-well plate format, 1 μl of yeast (˜100,000 cells) was pipetted into 8 microplate wells for each compound, four of which containing 70 μl SC media and four containing 70 μl SC-HIS media; each well was supplemented with 14 μl of MTS and 5 μl of compound. For 96-well plate format, the above was consistent except media, MTS, and compound volumes were 100 μl, 20 μl, and 7 μl, respectively. Control wells were treated with water in lieu of compound. The outermost columns of the 96-well plate and outer two columns of each 384-well plate were excluded from experimentation lest edge evaporative effects alter the data. Plates were incubated at 30° C. at normal atmosphere during which yeast were grown in the presence of the tested compound and 490 nm absorbance was measured 10-18 hr later using a Molecular Devices SpectraMax M5 microplate reader (Sunnyvale, Calif.).\n(§3) Survival for a given compound treatment was quantified by averaging the absorbance across the four treated wells in SC media and dividing that by the average absorbance of control wells. DEL induction was quantified by dividing the absorbance of each SC-HIS well by the corresponding paired SC well. Thus for each compound done in quadruplicate, each plate contains a set of 4 different measurements of DEL induction. For each compound, ratio of the average DEL induction in treated versus control cultures was taken as the fold-increase in DEL events (HIS^+ growth). A Student's t-test was performed on the 4 measurements of DEL induction and the same measurements recorded from control wells to determine significance of the fold-increase. It should be noted that this value of fold-increase is analyzed statistically for significance and not absolute; thus two different chemicals may have the same fold-increase but varying levels of significance. In plots and tables, data from a single experiment performed in quadruplicate is presented; all experiments were repeated independently in at least 3 separate experiments in both 96 and 384-well plate formats."}, "[1]": {"tested_on": "S. cerevisiae strain RS112", "experiment": "well-based DEL assay (MTS colorimetric, 96/384-well): genotoxicity and cytotoxicity", "description": "as §1, §2, §3"}, "[2]": {"conditions": "S. cerevisiae strain RS112 (diploid yeast cells)"}}, "note": "Like-named read-outs stand apart in the source and are kept apart here. Numbered stars: 1 amine (or outer) side, 2 acyl side, 3 side chain; on linkers, the order of the positions; unused ones are H or OH. Bridge positions count the residues as written; N and C are the ends. Square brackets hold non-standard residues; d marks the D form. Peptide text beside a SMILES is read from it. I, II: the chains in the order shown. Actinocin(9to1) = Cc1c2oc3c(C)ccc(C(=O)[*:1])c3nc-2c(C(=O)[*:2])c(N)c1=O; NMeV = CN[C@H](C(=O)O)C(C)C; Sar = CNCC(=O)O"}
{"smiles": "O=[N+]([O-])c1cc[n+]([O-])c2ccccc12", "note": "[4NQO, 4-nitroquinoline-1-oxide]", "values": [{"measurement": "viability", "setting": "in vitro; 0.08 μg/ml final in well", "value": 20.3, "unit": "%"}, {"measurement": "viability", "setting": "in vitro; 0.2 μg/ml final in well", "value": 11.7, "unit": "%"}, {"measurement": "viability", "setting": "in vitro; 1 μg/ml final in well", "value": 13.5, "unit": "%"}]}
{"smiles": "CC(C)=O", "note": "[Acetone, acetone]", "values": [{"measurement": "DEL (fold increase)", "setting": "[1]; 0.4% (solvent tested alone)", "value": 0.96, "unit": "fold"}, {"measurement": "DEL significance", "setting": "[1]; 0.4% (solvent tested alone)", "value": "ns (ns—not significant (p > 0.05))"}, {"measurement": "DNA deletion potential (DEL events) of solvent alone", "setting": "[1]; compared to control treated yeast", "value": "neither solvents generated any differentiable response"}]}
{"smiles": "Cc1c2oc3c(C)ccc(C(=O)N[C@@H]4C(=O)N[C@H](C(C)C)C(=O)N5CCC[C@H]5C(=O)N(C)CC(=O)N(C)[C@@H](C(C)C)C(=O)O[C@@H]4C)c3nc-2c(C(=O)N[C@@H]2C(=O)N[C@H](C(C)C)C(=O)N3CCC[C@H]3C(=O)N(C)CC(=O)N(C)[C@@H](C(C)C)C(=O)O[C@@H]2C)c(N)c1=O", "note": "[ActD, actinomycin D] (I: T[dV]P[Sar][NMeV] / II: T[dV]P[Sar][NMeV]; ester I:1-I:C, II:1-II:C; linker I:N-II:N via Actinocin(9to1))", "values": [{"measurement": "Cytotoxicity significance", "setting": "[1]", "value": "** (key: * (p < 0.05); ** (p < 0.01); *** (p < 0.005); ns—not significant (p > 0.05))"}, {"measurement": "DEL fold-increase", "setting": "[1]", "value": "significant DEL fold-increase"}, {"measurement": "cytotoxicity", "setting": "[1]", "value": "slight cytotoxicity"}, {"measurement": "Cytotoxicity (% survival)", "setting": "[1]; 5 μM final in well", "value": 112.0, "unit": "%"}, {"measurement": "DEL (fold increase)", "setting": "[1]; 5 μM final in well", "value": 0.89, "unit": "fold"}, {"measurement": "DEL significance", "setting": "[1]; 5 μM final in well", "value": "ns (ns—not significant (p > 0.05))"}, {"measurement": "Cytotoxicity (% survival)", "setting": "[1]; 10 μM final in well", "value": 110.2, "unit": "%"}, {"measurement": "DEL (fold increase)", "setting": "[1]; 10 μM final in well", "value": 0.96, "unit": "fold"}, {"measurement": "DEL significance", "setting": "[1]; 10 μM final in well", "value": "ns (ns—not significant (p > 0.05))"}, {"measurement": "Cytotoxicity (% survival)", "setting": "[1]; 20 μM final in well", "value": 86.3, "unit": "%"}, {"measurement": "DEL (fold increase)", "setting": "[1]; 20 μM final in well", "value": 1.26, "unit": "fold"}, {"measurement": "DEL significance", "setting": "[1]; 20 μM final in well", "value": "** (** (p < 0.01))"}]}
{"smiles": "c1ccccc1", "note": "[Benzene, benzene]", "values": [{"measurement": "viability at 0.25 mg/ml", "setting": "in vitro", "value": 96, "unit": "%"}, {"measurement": "viability at 0.4 mg/ml", "setting": "in vitro", "value": 83.7, "unit": "%"}, {"measurement": "Cytotoxicity significance", "setting": "[1]; 0.25 mg/ml final in well", "value": "ns (ns—not significant (p > 0.05))"}, {"measurement": "DEL (fold increase)", "setting": "[1]; 0.25 mg/ml final in well", "value": 1.77, "unit": "fold"}, {"measurement": "DEL significance", "setting": "[1]; 0.25 mg/ml final in well", "value": "*** (*** (p < 0.005))"}, {"measurement": "Cytotoxicity significance", "setting": "[1]; 0.40 mg/ml final in well", "value": "** (** (p < 0.01))"}, {"measurement": "DEL (fold increase)", "setting": "[1]; 0.40 mg/ml final in well", "value": 2.31, "unit": "fold"}, {"measurement": "DEL significance", "setting": "[1]; 0.40 mg/ml final in well", "value": "*** (*** (p < 0.005))"}, {"measurement": "DEL induction", "setting": "[1]; 0.25 and 0.40 mg/ml", "value": "significant DEL induction"}]}
{"smiles": "CC[C@@]1(O)C(=O)OCc2c1cc1n(c2=O)Cc2cc3ccccc3nc2-1", "note": "[Camptothecin, camptothecin]", "values": [{"measurement": "viability at 5 μM", "setting": "in vitro; [2]", "value": 86.1, "unit": "%"}, {"measurement": "viability at 15 μM", "setting": "in vitro; [2]", "value": 93.1, "unit": "%"}, {"measurement": "viability at 25 μM", "setting": "in vitro; [2]", "value": 95.7, "unit": "%"}, {"measurement": "viability at 40 μM", "setting": "in vitro; [2]", "value": 85.6, "unit": "%"}, {"measurement": "Cytotoxicity significance", "setting": "[1]; 5 μM final in well", "value": "*** (*** (p < 0.005))"}, {"measurement": "DEL (fold increase)", "setting": "[1]; 5 μM final in well", "value": 1.28, "unit": "fold"}, {"measurement": "DEL significance", "setting": "[1]; 5 μM final in well", "value": "** (** (p < 0.01))"}, {"measurement": "Cytotoxicity significance", "setting": "[1]; 15 μM final in well", "value": "* (* (p < 0.05))"}, {"measurement": "DEL (fold increase)", "setting": "[1]; 15 μM final in well", "value": 1.53, "unit": "fold"}, {"measurement": "DEL significance", "setting": "[1]; 15 μM final in well", "value": "*** (*** (p < 0.005))"}, {"measurement": "Cytotoxicity significance", "setting": "[1]; 25 μM final in well", "value": "* (* (p < 0.05))"}, {"measurement": "DEL (fold increase)", "setting": "[1]; 25 μM final in well", "value": 1.57, "unit": "fold"}, {"measurement": "DEL significance", "setting": "[1]; 25 μM final in well", "value": "*** (*** (p < 0.005))"}, {"measurement": "Cytotoxicity significance", "setting": "[1]; 40 μM final in well", "value": "*** (*** (p < 0.005))"}, {"measurement": "DEL (fold increase)", "setting": "[1]; 40 μM final in well", "value": 1.77, "unit": "fold"}, {"measurement": "DEL significance", "setting": "[1]; 40 μM final in well", "value": "*** (*** (p < 0.005))"}, {"measurement": "cytotoxicity", "setting": "[1]; each concentration 5-40 μM", "value": "various degrees of cytotoxicity"}, {"measurement": "genotoxicity (growth in −HIS media)", "setting": "[1]; each concentration 5-40 μM (1.7-13.9 μg/ml)", "value": "significant genotoxicity"}]}
{"smiles": "O=NN(CCCl)C(=O)NCCCl", "note": "[Carmustine, carmustine]", "values": [{"measurement": "viability", "setting": "in vitro; 10 μM final in well", "value": 91.8, "unit": "%"}, {"measurement": "viability", "setting": "in vitro; 30 μM final in well", "value": 29.5, "unit": "%"}, {"measurement": "viability", "setting": "in vitro; 50 μM final in well", "value": 10.7, "unit": "%"}, {"measurement": "cytotoxic effects", "setting": "[1]", "value": "more pronounced genotoxic and cytotoxic effects"}, {"measurement": "DEL significance", "setting": "[1]; 10 μM final in well", "value": "* (* (p < 0.05))"}, {"measurement": "DEL significance", "setting": "[1]; 30 μM final in well", "value": "*** (*** (p < 0.005))"}, {"measurement": "DEL significance", "setting": "[1]; 50 μM final in well", "value": "*** (*** (p < 0.005))"}, {"measurement": "DEL events (DNA deletions) induced by crosslinking agents", "setting": "[1]; well-based DEL assay", "value": "significant increase in DEL events"}]}
